From US20040052750A1, “Compositions for prevention and alleviation of skin wrinkles” (priority 2000, published 2004)
Where a name gives a salt, the structure may show the parent alone. Marks after values point to notes of the source that are not given here.

Legend:
[1] = system: hairless mice; assay: Inhibiting the generation of wrinkles in hairless mice (simulated sunlight); assay type: in vivo; conditions: 10 per group
Procedure: 6-week hairless mice were placed into 21 experimental groups and 3 control groups, with 10 rats per group. […] The experimental protocol in detail is as follows. Hairless mice were radiated using simulated sunlight at a dose of 2 MED (double Minimal Erythema Dose) 3 days a week for […], thereby generating wrinkles. Respective active ingredients or the solvent only were applied twice every day (specifically, on radiation days, the application was performed at 30 min before and after the radiation), at a volume of 100 μl each for 10 weeks from the first radiation day. Degrees of inhibition of generated wrinkles were determined. The determination was performed by visual observation with naked eyes and photography.

[2] = system: rat skin; assay: Promotion of collagen production in rat skin (hydroxyproline in implanted PVA sponge); assay type: in vivo, SD rats; conditions: 200 μl every day for 10 days, control = 100%
Procedure: In brief, 5-week male SD rats were grouped with 5 rats per group. The rats were each incised 1 cm in the center of their abdomens and PVA sponges (Unipoint ind.) were inserted therein. After suturing, as for experimental groups, respective active ingredients to be examined were applied to the PVA sponge-embeded regions i n a volume o f 200 μl every day for 10 days. Upon autopsy, the PVA sponge was removed to quantify hydroxyproline. The PVA sponge was added with 4 ml of 6 N HCl, hydrolized at 130° C. for 3 hours and was subjected to complete drying. 50 μl of methanol was added and the solution was incubated at 110° C. until HCl was removed. 1.2 ml of 50% isopropanol was added to dissolve the remaining precipitate. 200 μl of chloramine-T (sodium p-toluensulfochloramide trihydrate) solution was added while stirring, and let stand for 10 min. After adding 1.2 ml of Ehrlich reagent and mixing, the solution was incubated at 50° C. for 90 min. The resulting solution was cooled to room temperature and absorbance at 558 nm was measured. Hydroxyproline standard solutions were prepared by dissolving 1 mg hydroxyproline in 1 ml HCl and diluting it to concentrations of 0, 0.2, 0.4, 0.8, 1 mg each relative to 25 μl of 6 N HCl. The standard solutions were hydrolyzed at 130° C. for 3 hours. The quantified value of hydroxyproline, relative to hydroxyproline value (100%) of the control group which was applied with solvent only, are shown in Table 2.

[3] = system: hairless mice; assay: Alleviating photo-induced wrinkles in hairless mice; assay type: in vivo; conditions: twice a day for 6 weeks, 10 per group
Procedure: Mice were placed into 21 experimental groups and 3 control groups, with 10 rats per group. […] The experimental protocol is as follows. Hairless mice were radiated using a simulated sunlight at a dose of 2 MED (double Minimal Erythema Dose) 3 days a week for 10 weeks, thereby generating wrinkles. Then, respective active ingredients or the solvent only were applied at a volume of 100 μl each, twice a day for 6 weeks. Degrees of wrinkle reduction were determined. The determination was performed by visually observing the compound-applied region with naked eyes, and the region was photographed. The degrees of alleviation of wrinkles in the compound-treatment groups (experimental groups) were compared with those of the control group and were determined as one of 4 stages, that is, none (Score 0), slight (Score 1), moderate (Score 2) and high (Score 3), and the corresponding mice were counted.

[4] = system: fibroblasts derived from a human; assay: Promoting collagen production in fibroblasts (3H-proline incorporation into collagenase-sensitive protein); assay type: cell-based; conditions: control = 100%
Procedure: The experimental protocol in detail is as follows.
Human-derived fibroblasts were transferred to a 24 well plate and cultured in a medium containing 10% fetal bovine serum (FBS) for 24 hours, followed by washing twice with phosphate buffered saline. […] After the incubation was terminated, cells from each group were harvested and two fractions of each culture were prepared. One fraction from each culture was treated with collagenase. To all fractions was added trichloroacetic acid to precipitate proteins. The amount of radioactivity incorporated into collagenase-sensitive protein was measured and compared with that of the other fraction which was not treated with collagenase. The difference in radioactivity was attributed to the promoting effect of the compound.

For O=C1NC(=O)C(c2ccccc2)(c2ccccc2)N1 [Phenytoin], the “Inhibition of wrinkles, Score 0 (none)” value ([1]; 10^-3 M) was 0 number of mice, the “Inhibition of wrinkles, Score 1 (slight)” value ([1]; 10^-3 M) was 0 number of mice and the “Inhibition of wrinkles, Score 2 (moderate)” value (from here on “Inhibition … (moderate)”) ([1]; 10^-3 M) was 3 number of mice. The “Inhibition of wrinkles, Score 3 (high)” value ([1]; 10^-3 M) was 7 number of mice, the “Inhibition of wrinkles, Score 0 (none)” value ([1]; 10^-5 M) was 0 number of mice and the “Inhibition of wrinkles, Score 1 (slight)” value ([1]; 10^-5 M) was 0 number of mice. The “Inhibition … (moderate)” value ([1]; 10^-5 M) was 3 number of mice, the “Inhibition of wrinkles, Score 3 (high)” value ([1]; 10^-5 M) was 7 number of mice and the “Inhibition of wrinkles, Score 0 (none)” value ([1]; 10^-8 M) was 0 number of mice. For the same compound, the “Inhibition of wrinkles, Score 1 (slight)” value ([1]; 10^-8 M) was 0 number of mice, the “Inhibition … (moderate)” value ([1]; 10^-8 M) was 2 number of mice and the “Inhibition of wrinkles, Score 3 (high)” value ([1]; 10^-8 M) was 8 number of mice. The “Effect of promoting collagen production in animal skin (hydroxyproline value vs control)” value (from here on “Effect … (hydroxyproline value vs control)”) ([2]; 10^-5 M) was 182.47%, the “Effect … (hydroxyproline value vs control)” value ([2]; 10^-6 M) was 167.41% and the “Effect … (hydroxyproline value vs control)” value ([2]; 10^-7 M) was 143.51%. For the same compound, the “Effect … (hydroxyproline value vs control)” value ([2]; 10^-8 M) was 132.58* %, the “Reduction of wrinkles, Score 0 (none)” value ([3]; 10^-3 M) was 0 number of mice and the “Reduction of wrinkles, Score 1 (slight)” value ([3]; 10^-3 M) was 0 number of mice. For the same compound, the “Reduction of wrinkles, Score 2 (moderate)” value (“Reduction … (moderate)” below) ([3]; 10^-3 M) was 3 number of mice, the “Reduction of wrinkles, Score 3 (high)” value ([3]; 10^-3 M) was 7 number of mice and the “Reduction of wrinkles, Score 0 (none)” value ([3]; 10^-5 M) was 0 number of mice. For the same compound, the “Reduction of wrinkles, Score 1 (slight)” value ([3]; 10^-5 M) was 1 number of mice, the “Reduction … (moderate)” value ([3]; 10^-5 M) was 3 number of mice and the “Reduction of wrinkles, Score 3 (high)” value ([3]; 10^-5 M) was 6 number of mice. For the same compound, the “Reduction of wrinkles, Score 0 (none)” value ([3]; 10^-8 M) was 0 number of mice, the “Reduction of wrinkles, Score 1 (slight)” value ([3]; 10^-8 M) was 1 number of mice and the “Reduction … (moderate)” value ([3]; 10^-8 M) was 2 number of mice. For the same compound, the “Reduction of wrinkles, Score 3 (high)” value ([3]; 10^-8 M) was 7 number of mice, the “Effect of promoting collagen production in fibroblasts (rate of collagen production)” value (“Effect … (rate of collagen production)” below) ([4]; 10^-5 M) was 381.54% and the “Effect … (rate of collagen production)” value ([4]; 10^-6 M) was 360.65%. The “Effect … (rate of collagen production)” value ([4]; 10^-7 M) was 298.35% and the “Effect … (rate of collagen production)” value ([4]; 10^-8 M) was 215.28* %.

In the case of CCCC(CCC)C(=O)O [Valproic acid], the “Inhibition of wrinkles, Score 0 (none)” value ([1]; 10^-3 M) is reported as 0 number of mice, the “Inhibition of wrinkles, Score 1 (slight)” value ([1]; 10^-3 M) is reported as 0 number of mice and the “Inhibition … (moderate)” value ([1]; 10^-3 M) is reported as 2 number of mice. For the same compound, the “Inhibition of wrinkles, Score 3 (high)” value ([1]; 10^-3 M) was 8 number of mice, the “Inhibition of wrinkles, Score 0 (none)” value ([1]; 10^-5 M) was 0 number of mice and the “Inhibition of wrinkles, Score 1 (slight)” value ([1]; 10^-5 M) was 1 number of mice. For the same compound, the “Inhibition … (moderate)” value ([1]; 10^-5 M) was 2 number of mice, the “Inhibition of wrinkles, Score 3 (high)” value ([1]; 10^-5 M) was 7 number of mice and the “Inhibition of wrinkles, Score 0 (none)” value ([1]; 10^-8 M) was 0 number of mice. For the same compound, the “Inhibition of wrinkles, Score 1 (slight)” value ([1]; 10^-8 M) was 1 number of mice, the “Inhibition … (moderate)” value ([1]; 10^-8 M) was 1 number of mice and the “Inhibition of wrinkles, Score 3 (high)” value ([1]; 10^-8 M) was 8 number of mice. The “Effect … (hydroxyproline value vs control)” value ([2]; 10^-5 M) was 178.13%, the “Effect … (hydroxyproline value vs control)” value ([2]; 10^-6 M) was 157.72% and the “Effect … (hydroxyproline value vs control)” value ([2]; 10^-7 M) was 139.24%. For the same compound, the “Effect … (hydroxyproline value vs control)” value ([2]; 10^-8 M) was 128.05%, the “Reduction of wrinkles, Score 0 (none)” value ([3]; 10^-3 M) was 0 number of mice and the “Reduction of wrinkles, Score 1 (slight)” value ([3]; 10^-3 M) was 0 number of mice. The “Reduction … (moderate)” value ([3]; 10^-3 M) was 2 number of mice, the “Reduction of wrinkles, Score 3 (high)” value ([3]; 10^-3 M) was 8 number of mice and the “Reduction of wrinkles, Score 0 (none)” value ([3]; 10^-5 M) was 0 number of mice. For the same compound, the “Reduction of wrinkles, Score 1 (slight)” value ([3]; 10^-5 M) was 1 number of mice, the “Reduction … (moderate)” value ([3]; 10^-5 M) was 2 number of mice and the “Reduction of wrinkles, Score 3 (high)” value ([3]; 10^-5 M) was 7 number of mice. The “Reduction of wrinkles, Score 0 (none)” value ([3]; 10^-8 M) was 0 number of mice, the “Reduction of wrinkles, Score 1 (slight)” value ([3]; 10^-8 M) was 1 number of mice and the “Reduction … (moderate)” value ([3]; 10^-8 M) was 2 number of mice. For the same compound, the “Reduction of wrinkles, Score 3 (high)” value ([3]; 10^-8 M) was 7 number of mice, the “Effect … (rate of collagen production)” value ([4]; 10^-5 M) was 370.21% and the “Effect … (rate of collagen production)” value ([4]; 10^-6 M) was 332.11%. The “Effect … (rate of collagen production)” value ([4]; 10^-7 M) was 283.24% and the “Effect … (rate of collagen production)” value ([4]; 10^-8 M) was 201.13%.

In the case of COc1ccc(CCN(C)CCCC(C#N)(c2ccc(OC)c(OC)c2)C(C)C)cc1OC (stereo not drawn) [Verapamil HCl], the “Inhibition of wrinkles, Score 0 (none)” value ([1]; 10^-3 M) is reported as 0 number of mice, the “Inhibition of wrinkles, Score 1 (slight)” value ([1]; 10^-3 M) is reported as 0 number of mice and the “Inhibition … (moderate)” value ([1]; 10^-3 M) is reported as 1 number of mice. For the same compound, the “Inhibition of wrinkles, Score 3 (high)” value ([1]; 10^-3 M) was 9 number of mice, the “Inhibition of wrinkles, Score 0 (none)” value ([1]; 10^-5 M) was 0 number of mice and the “Inhibition of wrinkles, Score 1 (slight)” value ([1]; 10^-5 M) was 1 number of mice. The “Inhibition … (moderate)” value ([1]; 10^-5 M) was 2 number of mice, the “Inhibition of wrinkles, Score 3 (high)” value ([1]; 10^-5 M) was 7 number of mice and the “Inhibition of wrinkles, Score 0 (none)” value ([1]; 10^-8 M) was 0 number of mice. The “Inhibition of wrinkles, Score 1 (slight)” value ([1]; 10^-8 M) was 1 number of mice, the “Inhibition … (moderate)” value ([1]; 10^-8 M) was 1 number of mice and the “Inhibition of wrinkles, Score 3 (high)” value ([1]; 10^-8 M) was 8 number of mice. The “Effect … (hydroxyproline value vs control)” value ([2]; 10^-5 M) was 183.32%, the “Effect … (hydroxyproline value vs control)” value ([2]; 10^-6 M) was 167.06% and the “Effect … (hydroxyproline value vs control)” value ([2]; 10^-7 M) was 147.39%. For the same compound, the “Effect … (hydroxyproline value vs control)” value ([2]; 10^-8 M) was 135.63%, the “Reduction of wrinkles, Score 0 (none)” value ([3]; 10^-3 M) was 0 number of mice and the “Reduction of wrinkles, Score 1 (slight)” value ([3]; 10^-3 M) was 1 number of mice. For the same compound, the “Reduction … (moderate)” value ([3]; 10^-3 M) was 2 number of mice, the “Reduction of wrinkles, Score 3 (high)” value ([3]; 10^-3 M) was 7 number of mice and the “Reduction of wrinkles, Score 0 (none)” value ([3]; 10^-5 M) was 0 number of mice. For the same compound, the “Reduction of wrinkles, Score 1 (slight)” value ([3]; 10^-5 M) was 2 number of mice, the “Reduction … (moderate)” value ([3]; 10^-5 M) was 1 number of mice and the “Reduction of wrinkles, Score 3 (high)” value ([3]; 10^-5 M) was 7 number of mice. The “Reduction of wrinkles, Score 0 (none)” value ([3]; 10^-8 M) was 0 number of mice, the “Reduction of wrinkles, Score 1 (slight)” value ([3]; 10^-8 M) was 2 number of mice and the “Reduction … (moderate)” value ([3]; 10^-8 M) was 2 number of mice. For the same compound, the “Reduction of wrinkles, Score 3 (high)” value ([3]; 10^-8 M) was 6 number of mice, the “Effect … (rate of collagen production)” value ([4]; 10^-5 M) was 355.12% and the “Effect … (rate of collagen production)” value ([4]; 10^-6 M) was 331.09%. The “Effect … (rate of collagen production)” value ([4]; 10^-7 M) was 280.23% and the “Effect … (rate of collagen production)” value ([4]; 10^-8 M) was 183.25%.
